In the NIST ThermoML archive (doi:10.1016/j.jct.2005.10.013):
Numbers after ± are expanded uncertainties.

Assay: mn = molality of the nth substance listed, in mol/kg
Details: 101 kPa, Liquid, Sing-around technique in a fixed-path interferometer

CN(CCO)CCO [N-methyldiethanolamine] + O
speed of sound (283.15 K, m1 = 0.3067): 1474.2 ± 0.99 m/s | speed of sound (283.15 K, m1 = 0.5017): 1489.7 ± 1 m/s | speed of sound (283.15 K, m1 = 0.7035): 1505.1 ± 1 m/s | speed of sound (283.15 K, m1 = 0.8982): 1519.3 ± 1 m/s | speed of sound (283.15 K, m1 = 1.088): 1532.8 ± 1 m/s | speed of sound (283.15 K, m1 = 1.357): 1550.9 ± 1 m/s | speed of sound (283.15 K, m1 = 1.652): 1569.5 ± 1.1 m/s | speed of sound (283.15 K, m1 = 2.161): 1598.7 ± 1.1 m/s | speed of sound (298.15 K, m1 = 0.3067): 1520 ± 0.99 m/s | speed of sound (298.15 K, m1 = 0.5017): 1532.9 ± 1 m/s | speed of sound (298.15 K, m1 = 0.7035): 1545.8 ± 1 m/s | speed of sound (298.15 K, m1 = 0.8982): 1557.6 ± 1 m/s | speed of sound (298.15 K, m1 = 1.088): 1568.7 ± 1 m/s | speed of sound (298.15 K, m1 = 1.357): 1583.6 ± 1 m/s | speed of sound (298.15 K, m1 = 1.652): 1598.9 ± 1.1 m/s | speed of sound (298.15 K, m1 = 2.161): 1622.6 ± 1.1 m/s | speed of sound (313.15 K, m1 = 0.3067): 1547.7 ± 0.99 m/s | speed of sound (313.15 K, m1 = 0.5017): 1557.7 ± 1 m/s | speed of sound (313.15 K, m1 = 0.7035): 1567.7 ± 1 m/s | speed of sound (313.15 K, m1 = 0.8982): 1576.9 ± 1 m/s | speed of sound (313.15 K, m1 = 1.088): 1585.5 ± 1 m/s | speed of sound (313.15 K, m1 = 1.357): 1597 ± 1 m/s | speed of sound (313.15 K, m1 = 1.652): 1608.8 ± 1.1 m/s | speed of sound (313.15 K, m1 = 2.161): 1626.9 ± 1.1 m/s
